Consider 78 molecules from the METLIN SMRT retention time set (Domingo-Almenara et al. 2019).

SMILES strings stand for the structures.

This data set is described as follows: gradient 5% acetonitrile 3 min, to 50% in 2 min, to 85% in 15 min, held 3 min, 100 µL/min. The settings on record: column: Zorbax Extend-C18 2.1 x 50 mm; eluents: water / acetonitrile, 0.1% formic acid. A digest of the protocol: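 A Zorbax Extend-C18 column (2.1 × 50 mm, 1.8 μm) run at 100 μL/min with water and acetonitrile, both containing 0.1% formic acid, separated mixtures of ~100 pure standards. The HPLC was coupled to a quadrupole time-of-flight mass spectrometer operated in positive and negative ionization mode, with dead and dwell volumes of 40 μL and 900 μL. Each retention time was taken from a computationally picked adduct peak that was then manually inspected.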
The molecule `O=C(Nc1c(-c2ccccc2)nc2ccccn12)c1cccc([N+](=O)[O-])c1` came in with an RP-LC retention time of 596 s.
With `COc1ccc(Cc2nnc3sc(-c4ccccc4)nn23)cc1` the figure was 810 s; with `Cc1nn(C2CCS(=O)(=O)C2)c(C)c1S(=O)(=O)NCc1ccco1` (stereo not drawn), 638 s.
As for `CCOC(=O)c1csc(NC(=O)C2CCCN(c3ccc(-c4ccccc4)nn3)C2)n1` (stereo not drawn), the RP-LC retention time came out at 659 s.
For `COc1cc(Nc2c(C(=O)N3CCCC3)cnc3nc(C)ccc23)cc(OC)c1` the value was 616 s; for `CC1CCC(C(=O)NC(Cc2c[nH]c3ccccc23)C(=O)Nc2ccncc2)CC1` (stereo not drawn), 668 s.
`Fc1ccccc1N1CCN(Cc2nc(-c3ccc(N4CCCCC4)nc3)no2)CC1` had an RP-LC retention time of 972 s.
In turn, `CS(=O)(=O)N(C1CCOCC1)C1CCN(C(=O)c2ccc(Cl)cc2)CC1` yielded an RP-LC retention time of 840 s.
Consider `CCN(Cc1ccccc1)C(=O)C(=O)c1c[nH]c2ccccc12`, for which the RP-LC retention time worked out at 903 s.
For the molecule `Cc1nnc(SCC(=O)Nc2nc(-c3ccccc3)ns2)s1`, the RP-LC retention time amounted to 852 s.
For `CCCCC(=O)Nc1ccc(-c2nc(-c3cc(C)ccc3C)co2)cc1` the value was 1280 s; for `CCOc1nc2ccccc2nc1N1CCCC(C(=O)Nc2ccc(F)c(Cl)c2)C1` (stereo not drawn), 797 s.
Molecule `COc1ccc(CNS(=O)(=O)c2ccc(-c3nnc(C4CCC4)o3)o2)cc1` showed an RP-LC retention time of 873 s.
Consider `COc1cc(Nc2ncc(F)c(Nc3ccc4c(n3)N(COP(=O)(O)O)C(=O)C(C)(C)O4)n2)cc(OC)c1OC`, for which the RP-LC retention time was 653 s.
Consider `COc1ccccc1OCCNC(=O)C1CCc2nc(N3CCC(C)CC3)ncc2C1` (stereo not drawn), for which the RP-LC retention time was determined as 776 s.
With `CN(C)C(=O)c1cnn(-c2cccc(F)c2)c1-n1cccc1`, the RP-LC retention time is 806 s.
For `CCCCOC(=O)c1cccnc1` the value was 874 s.
Consider `CN(C)S(=O)(=O)c1ccc(-c2nnc(C(=O)NCCN3CCc4ccccc4C3)o2)cc1`, for which the RP-LC retention time was 642 s.
With `Cc1cccc(NC(=O)C2CCN(S(=O)(=O)c3cc(C(=O)N4CCCCCC4)cs3)CC2)n1`, the RP-LC retention time worked out at 769 s.
For `COc1ccccc1-c1nnc(-c2cc(S(=O)(=O)N3CCOCC3)ccc2Cl)o1` the value was 902 s; for `COCCCNC(=O)c1ccc2c(c1)N(Cc1ccccc1)C(=O)CO2`, 732 s.
For `O=C1CC(c2noc(-c3cccc(Cl)c3)n2)CN1c1ccc(F)cc1` (stereo not drawn) the value was 1030 s; for `COc1ccc(Cl)cc1S(=O)(=O)N1CCCN(c2ccc(=O)n(-c3ccccc3)n2)CC1`, 906 s; for `Cc1cccc(NC(=O)N2CCN(c3cc(N4CCCCC4)ncn3)CC2)c1C`, 596 s.
With `CSc1nnc(NC(=O)c2ccccc2[N+](=O)[O-])s1` the figure was 672 s; with `O=C(NCc1cccs1)N1CCN(c2nc3c(F)cc(F)cc3s2)CC1`, 849 s; with `O=C(N[C@H]1C[C@@H]2C[C@H]1CN2S(=O)(=O)c1cccc2cccnc12)c1ccccc1`, 792 s.
Molecule `O=C(CCCS(=O)(=O)Cc1ccccc1)Nc1ccc2c(c1)OCCO2` yielded an RP-LC retention time of 700 s.
As for `CN1C(=O)c2cc(S(=O)(=O)NCc3ccccc3)ccc2Oc2cccnc21`, the RP-LC retention time was determined as 959 s.
With `CCOc1ccc2ncc(C#N)c(N3CCC(C(=O)Nc4ccccc4OCC)CC3)c2c1` the figure was 984 s.
Turning to `COCc1nnc(C(=O)Nc2ccc(C(=O)NCCc3c[nH]c4ccc(C)cc34)cc2)s1`, the RP-LC retention time came out at 844 s.
`COc1ccc(NS(=O)(=O)c2sc3ccc(Cl)cc3c2C)cc1N1CCNCC1` had an RP-LC retention time of 781 s.
Molecule `O=C(Nc1cccnc1N1CCOCC1)C1CC1` had an RP-LC retention time of 576 s.
With `CCc1nncn1C1CCN(S(=O)(=O)c2ccccc2C)CC1` the figure was 686 s; with `Cc1ccn2cc(-c3ccc(NC(=O)Nc4ccc(F)cc4)cc3)nc2n1`, 654 s.
For `COC(=O)c1cc2c(=O)n(-c3nc(-c4ccc(Cl)cc4)cs3)ccc2nc1C` the value was 1420 s; for `COc1ccc(Cl)cc1C(=O)NCC(c1ccsc1)N1CCCC1` (stereo not drawn), 582 s.
In turn, `COc1ccc2[nH]c3c(C)c4ccncc4c(C)c3c2c1` returned an RP-LC retention time of 658 s.
In turn, `CC1CCN(S(=O)(=O)c2ccc3nc(N4CCN(C5CCCCC5)CC4)ccc3c2)CC1` returned an RP-LC retention time of 776 s.
With `Cc1cc(C)c(C(=O)N2CCC(CC(=O)NC(c3cccs3)C(C)C)CC2)[nH]1` (stereo not drawn) the figure was 863 s.
Take `COc1cn(CC(=O)NCc2ccco2)c(CO)cc1=O`: the RP-LC retention time stood at 544 s.
With `COc1ccc(Cl)cc1NC(=O)Cn1ncc2c(c1=O)N(CC1CC1)C(=O)CS2`, the RP-LC retention time was 878 s.
For `CC(C)c1ccc(-c2csc(NC(=O)c3ccncc3)n2)cc1` the value was 989 s; for `CCCNC(=O)N(C1CCOCC1)C1CCN(C(=O)c2ccc3ccccc3n2)CC1`, 707 s.
In turn, `COc1ccc(-c2cn3c(CCC(=O)Nc4ccc5c(c4)OCCO5)csc3n2)cc1` came in with an RP-LC retention time of 678 s.
With `Cc1ccccc1Oc1nccn2c(=O)n(CC(=O)Nc3ccc(F)cc3F)nc12` the figure was 829 s; with `CCOCCCNC(=O)c1nc(Nc2ccc(C)cc2)c2ccccc2n1`, 746 s.
With `CCOC(=O)c1cc(S(=O)(=O)N2CCCC2C(=O)NCc2cccnc2)cn1C` (stereo not drawn) the figure was 598 s; with `CCC[C@@H]1C[C@@H](C(=O)N[C@@H]([C@H]2O[C@H](SC)[C@H](O)[C@@H](O)[C@@H]2O)[C@@H](C)O)N(C)C1`, 595 s.
For `Cc1nc(C(=O)Nc2ccccc2)c(C)n1C1CCN(S(C)(=O)=O)CC1` the value was 648 s; for `COC(=O)C(CCSC)NC(=O)c1cc2c(n(-c3ccc(Cl)cc3)c1=O)CC(C)(C)CC2=O` (stereo not drawn), 1040 s; for `CCOC(=O)c1c(C)[nH]c(C(=O)N2CCCC(C(=O)NCc3ccccc3F)C2)c1C` (stereo not drawn), 790 s.
In turn, `Cc1ccc2ncn(C3CCN(C(=O)Nc4ccc(C)c(Cl)c4)CC3)c(=O)c2c1` displayed an RP-LC retention time of 888 s.
For `CCOc1ccc(-n2nc(-c3nc(-c4ccncc4)no3)c3ccccc3c2=O)cc1` the value was 1090 s.
For `Cc1sc(-c2nnc(C3CCC3)o2)cc1NC(=O)c1ccc(C#N)cc1` the value was 965 s; for `CCn1c(CC2CCN(C(=O)NCCc3ccccc3)C2)nc2cccnc21` (stereo not drawn), 588 s; for `CCCC(C)C(=O)NC1CCN(C2=NS(=O)(=O)C(c3ccc(CC)cc3)=C2C)CC1` (stereo not drawn), 927 s.
For the molecule `CCc1ccc(CNC(=O)C2=C3CCCN3c3ccc(F)cc3S2(=O)=O)cc1`, the RP-LC retention time is 996 s.
For `COc1ccc(Cc2nc(-c3cccc(-c4ccn[nH]4)c3)no2)cc1Cl` the value was 963 s; for `C=CCN1C(=O)COc2ccc(-c3csc(NC(=O)c4ccc(Br)cc4)n3)cc21`, 1120 s; for `COc1cc(NC(=O)c2sc(-c3cn(C(C)C)c4ncccc34)nc2C)cc(OC)c1`, 1030 s.
Molecule `CC(=O)NCCc1csc(C2CCN(C(=O)C3(c4ccccc4)CC3)CC2)n1` had an RP-LC retention time of 651 s.
`Cc1cc(N2CCN(C(=O)c3ccco3)CC2)nc(N2CCCCC2)n1` yielded an RP-LC retention time of 626 s.
For `CCCc1cc(N2CCN(C(=O)c3ccsc3)CC2)nc2nnc(CC)n12` the value was 624 s; for `COCCN1CC2(CCN(S(=O)(=O)c3cc(C)c(C)cc3C)CC2)C1c1ccncc1` (stereo not drawn), 672 s; for `NC(=O)c1c(NC(=O)C2COc3ccccc3O2)sc2c1CCN(Cc1ccccc1)C2` (stereo not drawn), 587 s.
`CCn1cc(-c2nc(C)c(C(=O)Nc3ccc(F)cc3F)s2)c2cccnc21` registered an RP-LC retention time of 1010 s.
Molecule `Cc1ccc(C)c(N2CCN(c3ccnc(SCC(=O)Nc4cccc(Cl)c4)n3)CC2)c1` had an RP-LC retention time of 999 s.
`COc1ccc(-c2cc(C(=O)N3CCN(S(=O)(=O)c4ccc(C)cc4C)CC3)[nH]n2)cc1` returned an RP-LC retention time of 924 s.
For `O=S(=O)(c1cccs1)N1CCN(c2nc3c(F)cc(F)cc3s2)CC1` the value was 997 s.
For `CC(C)C(=O)Nc1ccc2c(c1)nc(CN1CCN(C(=O)c3ccco3)CC1)n2C` the value was 605 s; for `O=C(Cc1cccc(F)c1)N1CCC2(C1)C(=O)Nc1ccccc12` (stereo not drawn), 713 s; for `Cc1cc(NC(=O)CN2CCc3ccccc3C2C(=O)N2CCCCC2)ccc1F` (stereo not drawn), 964 s.
With `CCc1cc(=O)n(CC(=O)Nc2ccc(C)c(C)c2)c(N)n1` the figure was 640 s; with `CCOC(=O)c1nc(NCc2ccc(C)cc2)c2ccccc2n1`, 823 s.
As to `CCn1ccc2cc(S(=O)(=O)N3CCCN(C(=O)Nc4ccccc4)CC3)ccc21`, the RP-LC retention time was 868 s.
As for `CCc1nc2cc(-c3noc(Cc4cccc(F)c4)n3)ccc2o1`, the RP-LC retention time is 1050 s.
With `COc1ccc(-c2nnc3sc(-c4ccc(N(C)C)cc4)nn23)cc1` the figure was 1200 s.
